Assays:
motilin receptors = biological target: T1, motilin receptors (Oryctolagus cuniculus, UniProt G1T803); test: Binding capacity to motilin receptors: displacement of 125-iodine-labelled motilin, rabbit antrum crude membrane preparation; details: rabbit antrum crude membrane fraction, iodinated motilin 50 pM, 30° C., 60 minutes; read-out: pIC50 value (50% inhibition of the specific binding of the iodinated motilin to the motilin receptors) (converted)
T1 construct: fraction of a tissue homogenate from rabbit antrum; from tissue; host or cells: rabbit antrum, mucosa removed, crude membrane preparation
T1 sequence (G1T803 1-400): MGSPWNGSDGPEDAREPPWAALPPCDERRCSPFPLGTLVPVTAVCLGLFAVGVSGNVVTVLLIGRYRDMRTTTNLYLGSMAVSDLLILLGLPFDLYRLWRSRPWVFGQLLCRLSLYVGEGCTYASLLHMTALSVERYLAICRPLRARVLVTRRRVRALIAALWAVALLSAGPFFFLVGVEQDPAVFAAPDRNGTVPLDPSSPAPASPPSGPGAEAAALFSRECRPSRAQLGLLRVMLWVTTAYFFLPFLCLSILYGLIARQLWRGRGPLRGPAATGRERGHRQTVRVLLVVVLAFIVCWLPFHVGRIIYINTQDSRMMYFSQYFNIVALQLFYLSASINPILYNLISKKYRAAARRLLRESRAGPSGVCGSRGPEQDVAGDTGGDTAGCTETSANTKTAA
Description: 1. Determination of the binding capacity of the test substances to motilin receptors.
The affinity of the compounds of the formula I for motilin receptors is measured in vitro on a fraction of a tissue homogenate from rabbit antrum. The displacement of radioactively labelled iodinated motilin from motilin receptor binding by the test substances is determined.
The receptor binding studies were carried out by a modification of the method of Borman et al. (Regulatory Peptides 15 (1986), 143-153). To prepare the ^125 iodine-labelled motilin, motilin is iodinated enzymatically using lactoperoxidase in a known manner, for example analogously to the method described by Bloom et al. (Scand. J. Gastroenterol. 11 (1976) 47-52). […]
For the binding test, 200 μl of the crude membrane fraction (0.5-1 mg of protein) in 400 μl of a buffer solution A (50 mM tris-HCl buffer, 1.5% BSA, 10 mM MgCl2, pH 8.0) were incubated with 100 μl of iodinated motilin diluted in buffer solution B (10 mM tris-HCl buffer, 1% BSA, pH 8) (final concentration 50 pM) at 30° C. for 60 minutes. […] The residue obtained as pellet after the centrifugation was washed with buffer solution B and counted in a gamma counter. […] From this the corresponding pIC50 value was calculated.

beagle dogs [1] = test: In vivo determination of the effect on the rate of gastric emptying
Description: 2. In vivo determination of the effect of the substances on the rate of gastric emptying.
The determination of the rate of gastric emptying was carried out on beagle dogs which, before the test, had undergone surgical establishment of an esophagus fistula and implantation of a duodenal cannula. 15 minutes after duodenal administration of the test substances, the fasting conscious dogs were given 285 g of a semisolid caloric test meal through the esophagus fistula. The contents emptied from the stomach were collected through the duodenal cannula at 15-minute intervals. From the collected amounts of stomach contents, the time within which 50% emptying of the stomach takes place was calculated. The time is reported as measure of gastric emptying.

beagle dogs [2] = test: In vivo determination of the effect on the resting tone of the esophagus sphincter (pull-through manometry); details: conscious fasting beagle dogs, 0.251 μmole/kg intraduodenally
Description: 3. In vivo determination of the effect of the substances on the resting tone of the esophagus sphincter.
This determination is carried out on trained, conscious, fasting beagle dogs which, before the test, have each been given an esophagus fistula and a duodenal cannula. The pressure of the lower esophagus sphincter is measured by means of a perfused catheter system which has a lateral opening and which is connected to a pressure transducer and a recorder. The catheter is passed through the esophagus fistula into the stomach and then slowly withdrawn manually (=pull-through manometry). A peak is recorded when the catheter part with the lateral opening passes through the high-pressure zone of the lower esophagus sphincter. The pressure in mm Hg is determined from this peak.
In this way, initially the basal pressure of the esophagus sphincter is determined as control value. Subsequently, the test substance is administered intraduodenally and, after 15 minutes, the pressure at the lower esophagus sphincter is measured at 2-minute intervals for a period of 46 minutes. The increase in the pressure after administration of test substance compared with the previously determined basal pressure is calculated.

## CC[C@@H](O)[C@@](C)(O)[C@@H]1OC(=O)[C@H](C)[C@@H](O[C@H]2C[C@@](C)(OC)[C@@H](O)[C@H](C)O2)[C@H](C)[C@@H](O[C@@H]2O[C@H](C)C[C@H](N(C)C(C)C)[C@H]2O)[C@@]2(C)CC(C)=C(O2)[C@@H]1C [Example 1, [2R,3R(2R',3R'),6R,7S,8S,9R,10R]-3-(2',3'-dihydroxypent-2'-yl)-7-[(2,6-dideoxy-3-C-methyl-3-0-methyl-α-L-ribo-hexopyranosyl)-oxy]-9-[(3,4,6-trideoxy-3-(N-methyl-N-isopropylamino)-β-D-xylo-hexopyranosyl)-oxy]-2,6,8,10,12-pentamethyl-4,13-dioxabicyclo[8.2.1]tridec-12-en-5-one]
Motilin receptors
  IC50: 4.79 nM
Beagle dogs [1]; beagle dogs, dose of 0.46 μmole/kg, duodenal administration
  effect on gastric emptying (in words): distinct stimulation of gastric emptying
Beagle dogs [1]; fasting conscious beagle dogs, 0.46 μmole/kg duodenal, 15 minutes before semisolid caloric test meal, control animal group 46 minutes
  time for 50% emptying of the stomach: 27 min
Beagle dogs [2]; compared with basal pressure
  change of basal tone of the esophagus sphincter: more than doubled
Beagle dogs [2]; throughout duration of the test
  persistence of the effect on esophagus sphincter tone: ≥ 45 min
